Source: patent US20230219957A1, “SMALL MOLECULE CB002-ANALOGES RESTORE THE P53 PATHWAY AND TARGET S-PHASE CHECKPOINT” (Brown University, priority 2020, published 2023)

Assays:
SW480 colon cancer cells [1] = experiment: Propidium iodide / BrdU cell cycle analysis of synchronized cells; type: cell-based, human; settings: all time points, versus DMSO vehicle control
Method: (§1) Cell synchronization. Synchronized cells were synchronized by double thymidine block. Cells were treated with […] thymidine for sixteen hours. The drug was removed and replaced by complete growth media for eight hours. Cells were treated for the second time with […] thymidine for sixteen hours. At this point, cells were treated and harvested.
Propidium iodide and BrdU flow cytometry assay. Cells were seeded at a density of 5×10^5 in a 6-well plate and treated for forty-eight to seventy-two hours. After treatment, floating cells were collected, and adherent cells were trypsinized, pelleted, washed with phosphate-buffered saline, and fixed in 70% ethanol overnight. For propidium iodide (PI) based Sub-G1 apoptosis analysis, cells were spun down after fixation and resuspended in phosphate-citric acid buffer (0.2M Na2HPO4+0.1M Citric Acid, pH 7.8) at room temperature for five minutes. The cell pellet was resuspended for staining with 50 μg/mL PI and 250 μg/mL ribonuclease (RNase A). For BrdU analysis, after cell fixation, cells were spun down and resuspended in one mL of 2N HCL with 0.5% Triton X-100 for thirty minutes at room temperature. Cells were pelleted, washed with phosphate-buffered saline, and resuspended in 20 μL BrdU antibody (BD Biosciences, cat no. 347580) diluted in 0.5% Tween 20/PBS/5% bovine serum albumin for thirty minutes at room temperature. Cells were then spun down and resuspended in 140 μg/mL goat-anti mouse Alexa Fluor 488 (#A-11008, Thermo Fisher Scientific, Waltham, Mass., USA) in 0.5% Tween 20 in phosphate-buffered saline/5% bovine serum albumin for thirty minutes at room temperature. Cells were then spun down and resuspended in 5 μg/mL PI: 250 μg/mL RNase A solution. Samples were analyzed on an Epics Elite Epics flow cytometer (Coulter-Beckman).
BrdU analysis gating. Cell aggregates were gated out in the PI Peak vs DNA PI histogram. BrdU lower limit intensity was set on the upper limit of the negative control. The no BrdU antibody assays and no goat-anti mouse Alexa Fluor 488 antibody assays were the negative controls. […] Gating was held constant throughout the samples within a given assay.

SW480 colon cancer cells [2] = experiment: Immunoblot of cell cycle markers; type: cell-based, human; settings: synchronized SW480
Method: Immunoblotting (additional method). After treatment, floating cells were collected, and adherent cells were trypsinized, washed with phosphate-buffered saline, and lysed with RIPA buffer (Sigma-Aldrich, St. Louis, Mo., USA) for thirty minutes to one hour at 4° C. Protein lysates were pelleted. The supernatant was collected. Total protein per sample was determined using a Pierce™ BCA Protein Assay Kit (Thermo Fisher Scientific, Waltham, Mass., USA). Proteins were denatured using 1× NuPAGE® LDS sample buffer (Thermo Fisher Scientific, Waltham, Mass., USA) and reduced with 2-mercaptoethanol (Sigma-Aldrich, St. Louis, Mo., USA). Protein lysates were boiled for fifteen min at 95° C. After protein normalization, samples were loaded into NuPAGE™ Novex™ 4-12% Bis-Tris Protein Gels (Thermo Fisher Scientific, Waltham, Mass., USA). Gel electrophoresis was performed with NuPAGE™ MES SDS Running Buffer. Proteins were transferred onto an Immobilon-P membrane (PVDF, EMD Millipore, Taunton, Mass., USA) using a Bio-Rad system with a 10% Tris-Glycine and 10% methanol transfer buffer diluted in distilled and deionized water. Membranes were blocked with 10% milk in Tris-buffered saline with Tween 20 (TBST) solution. The membranes were incubated overnight with the primary antibody, washed with TBST, and incubated with secondary antibody for one hour. Primary antibody incubations were performed in 5% milk or 5% bovine serum albumin in TBST solution as per manufacturer instructions. Signal was detected using a chemiluminescent detection kit, followed by autoradiography. The following antibodies were used: p53 (1:1000, #sc-126, Santa Cruz Biotechnology, Santa Cruz, Calif., USA), p73 (1:1000, #A300-126A, Bethyl Laboratories), Noxa (1:250, #OP180, EMD Millipore, Taunton, Mass., USA), DR5 (#3696), cleaved PARP (#9546), phospho-RPA32/RPA2 (#54762), p-cdc2 (#9111), p-cdc25c, pH3 (#3377) (1:1,000; Cell Signaling Technology, Inc., Danvers, Mass. USA) and β-actin (1:10000, A5441, Sigma).
as §1

| SMILES | S-phase population (SW480 colon cancer cells [1]) | pcdc2(Tyr15) and pcdc25c(Ser16) expression (SW480 colon cancer cells [2]; combination with etoposide) | pcdc2(Tyr15) and pcdc25c(Ser16) protein expression (SW480 colon cancer cells [2]; single agent) |
| --- | --- | --- | --- |
| Cn1c(=O)c2c(ncn2C)n(C)c1=O [caffeine, reference compound] | comparable to the dimethyl sulfoxide vehicle control | decreased expression |  |
| COc1cc([C@@H]2c3cc4c(cc3[C@@H](O[C@@H]3O[C@@H]5CO[C@@H](C)O[C@H]5[C@H](O)[C@H]3O)[C@H]3COC(=O)[C@H]23)OCO4)cc(OC)c1O [etoposide, reference compound] |  |  | enhances protein expression |
